In paper PMC7915588, “Polyphyllin D Shows Anticancer Effect through a Selective Inhibition of Src Homology Region 2-Containing Protein Tyrosine Phosphatase-2 (SHP2)” (Molecules, 2021):

Target: T1, PTPN21 (PTPD1) (Homo sapiens, UniProt Q16825)
T1 construct: 839-1174
T1 sequence (Q16825 1-1174): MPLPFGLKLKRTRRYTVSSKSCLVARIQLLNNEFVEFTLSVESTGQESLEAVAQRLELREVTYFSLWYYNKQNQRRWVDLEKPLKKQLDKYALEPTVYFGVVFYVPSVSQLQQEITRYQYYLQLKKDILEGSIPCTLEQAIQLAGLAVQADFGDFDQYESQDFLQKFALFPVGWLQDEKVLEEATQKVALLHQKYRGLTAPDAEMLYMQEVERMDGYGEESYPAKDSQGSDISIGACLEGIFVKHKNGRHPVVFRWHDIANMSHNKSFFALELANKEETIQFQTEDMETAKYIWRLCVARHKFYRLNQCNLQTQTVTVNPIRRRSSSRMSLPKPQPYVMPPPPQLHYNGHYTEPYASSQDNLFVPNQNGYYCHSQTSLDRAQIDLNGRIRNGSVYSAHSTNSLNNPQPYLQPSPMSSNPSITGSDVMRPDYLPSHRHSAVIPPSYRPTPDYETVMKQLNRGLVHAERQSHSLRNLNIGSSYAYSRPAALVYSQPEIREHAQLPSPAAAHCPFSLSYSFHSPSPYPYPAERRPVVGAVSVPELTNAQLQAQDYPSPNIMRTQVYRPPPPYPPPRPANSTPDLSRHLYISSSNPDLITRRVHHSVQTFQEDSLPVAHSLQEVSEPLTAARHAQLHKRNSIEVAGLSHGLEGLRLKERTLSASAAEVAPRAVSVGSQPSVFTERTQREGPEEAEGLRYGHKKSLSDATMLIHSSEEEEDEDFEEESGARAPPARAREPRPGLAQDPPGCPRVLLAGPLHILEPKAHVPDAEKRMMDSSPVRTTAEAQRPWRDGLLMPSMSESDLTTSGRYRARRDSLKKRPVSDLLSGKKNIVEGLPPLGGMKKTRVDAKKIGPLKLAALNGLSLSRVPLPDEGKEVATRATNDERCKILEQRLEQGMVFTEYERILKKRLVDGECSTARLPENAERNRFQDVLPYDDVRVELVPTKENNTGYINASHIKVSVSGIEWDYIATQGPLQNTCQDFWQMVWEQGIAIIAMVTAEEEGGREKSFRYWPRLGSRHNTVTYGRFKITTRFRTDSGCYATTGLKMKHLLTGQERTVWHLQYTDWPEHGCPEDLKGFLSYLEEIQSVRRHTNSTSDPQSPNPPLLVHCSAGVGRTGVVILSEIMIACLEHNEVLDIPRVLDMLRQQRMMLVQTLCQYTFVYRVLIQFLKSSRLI
Assay: biochemical
Set-up: Fluorogenic phosphatase assay, DiFMUP hydrolysis by recombinant PTPs, initial velocity, Ex/Em 355/460 nm
Conditions: read-out: Inhibition by 20 µM polyphyllin D (%)

With `C[C@@H]1CC[C@@]2(OC1)O[C@H]1C[C@H]3[C@@H]4CC=C5C[C@@H](O[C@@H]6O[C@H](CO)[C@@H](O[C@@H]7O[C@@H](CO)[C@H](O)[C@H]7O)[C@H](O)[C@H]6O[C@@H]6O[C@@H](C)[C@H](O)[C@@H](O)[C@H]6O)CC[C@]5(C)[C@H]4CC[C@]3(C)[C@H]1[C@@H]2C` [polyphyllin D] the inhibition at 20 µM was 20.5%.
